Reference: patent publication US7063946B2, “Methods, reagents, kits and apparatus for protein function analysis” (Meso Scale Technologies, LLC., priority 2001, dated 2006)

Experiments:
Assay in all cases: Kinase inhibitor profiling, autophosphorylation
Type in all cases: biochemical
[1] = biological target: T1, Kit (Mus musculus, UniProt P05532)
T1 construct: specificity data for proteins generated from a library of eighteen full-length clones; biotin on random lysines (biotin-Lys-tRNA); host or cells: rabbit reticulocyte lysate, coupled transcription/translation (TnT, Promega)
Procedure: (§1) Proteins were produced from DNA plasmids of Mock Luciferase, Promega, tyrosine kinase clone Spleen Tyrosine kinase (SYK, IMAGE ID# 3870426) and Eph receptor-A7 (EphA7, IMAGE ID# 3991628) (Incyte Genomics, CA) and immobilized on streptavidin or avidin coated NPT-IPR plates as described in the Example 7. To promote autophosphorylation in these immobilized and purified proteins, Mn++ ions were added in a 50 μl reaction containing 5 mM MgCl2, 5 mM MnCl2, 100 μM ATP, 25 mM Tris-HCl buffer pH 7.4, 0.05 mM Na3VO4, 0.004% TritonX-100, 2 mM DTT and EDTA-free protease inhibitor (Roche Molecular Biochemicals). This mixture was incubated with shaking at room temperature overnight to allow autophosphorylation. Following this incubation, wells were washed 2 times with TT-buffer and 2 times with water. Following this step, 50 ng Sulfo-TAG labeled anti-phosphotyrosine in buffer containing 25 mM Tris-HCl buffer pH 7.4, 5 mM MgCl2, 0.05 mM Na3VO4, 0.004% TritonX-100, 2 mM DTT and 0.05% IgG in a final volume of 50 μl was added followed by incubation at room temperature for 45 min. The unbound reagents were removed by one time washing with water, and the TAG label was detected in presence of 150 μl IPR assay buffer (0.4 mM Gly—Gly buffer, pH 7.8, 1 mM EDTA, 0.1 M TPA). The ECL signals were measured using an imaging plate reader.
(§2) Proteins were produced using 100 ng of plasmid DNA Mock (Luciferase, Promega) or tyrosine kinases (Fert2 IMAGE ID # 4485050, FGFR1 IMAGE ID # 4037899, Fgfr2 IMAGE ID # 2654352, Src IMAGE ID # 3156400, BMX IMAGE ID # 3919253, LCK IMAGE ID # 4191610, Epha7 IMAGE ID # 3991628, Ephb4 IMAGE ID # 4013934, Tek IMAGE ID # 3482498, HCK IMAGE ID # 4778819, BTK IMAGE ID # 4478463, CSK IMAGE ID # 4398416, SYK IMAGE ID # 3870426, FGR IMAGE ID # 4419973, PTK2B IMAGE ID # 4339456, FRK(IMAGE ID # 4515877, Kit IMAGE ID # 2644960, Fgfr-4 IMAGE ID # 4239139, NTRK3 IMAGE ID # 4181574, Kdr IMAGE ID # 4238984, Incyte Genomics, CA) and immobilized on SA or avidin coated NPT-IPR plates as described in previous examples. The unbound components of the translation reaction (including any endogenous kinases) were removed by 3 washes with TT-buffer (25 mM Tris-HCl buffer pH 7.4 and 0.004% Triton), two five minutes washes with high-salt wash buffer (25 mM Tris-HCl buffer pH 7.4, 0.004% Triton, 1M NaCl and 5 mM DTT) and 3 washes with TT-buffer. […] The mixture was incubated at room temperature for 10 mm before starting the kinase reaction by adding 25 μl of 200 μM ATP in buffer A. This mixture was incubated with intermittent shaking at room temperature for 2 hours to overnight to allow (a) phosphorylation of the pEY substrate and (b) autophosphorylation of the immobilized kinases. Autophosphorylation and phosphorylation of the pEY was measured as described in Examples 7 and 8.
(§3) The ECL signal in control wells produced by tyrosine kinases was compared to the wells containing inhibitor compounds. The signal produced from Mock was negligible.

[2] = biological target: T2, SRC (Mus musculus, UniProt P05480)
T2 construct: specificity data for proteins generated from a library of eighteen full-length clones; host or cells: rabbit reticulocyte lysate, TnT coupled transcription/translation
Procedure: as §1, §2, §3

[3] = biological target: T3, BMX (Homo sapiens, UniProt P51813)
T3 construct: specificity data for proteins generated from a library of eighteen full-length clones; host or cells: rabbit reticulocyte lysate, TnT coupled in vitro transcription/translation (cell-free)
T3 sequence (P51813 1-675): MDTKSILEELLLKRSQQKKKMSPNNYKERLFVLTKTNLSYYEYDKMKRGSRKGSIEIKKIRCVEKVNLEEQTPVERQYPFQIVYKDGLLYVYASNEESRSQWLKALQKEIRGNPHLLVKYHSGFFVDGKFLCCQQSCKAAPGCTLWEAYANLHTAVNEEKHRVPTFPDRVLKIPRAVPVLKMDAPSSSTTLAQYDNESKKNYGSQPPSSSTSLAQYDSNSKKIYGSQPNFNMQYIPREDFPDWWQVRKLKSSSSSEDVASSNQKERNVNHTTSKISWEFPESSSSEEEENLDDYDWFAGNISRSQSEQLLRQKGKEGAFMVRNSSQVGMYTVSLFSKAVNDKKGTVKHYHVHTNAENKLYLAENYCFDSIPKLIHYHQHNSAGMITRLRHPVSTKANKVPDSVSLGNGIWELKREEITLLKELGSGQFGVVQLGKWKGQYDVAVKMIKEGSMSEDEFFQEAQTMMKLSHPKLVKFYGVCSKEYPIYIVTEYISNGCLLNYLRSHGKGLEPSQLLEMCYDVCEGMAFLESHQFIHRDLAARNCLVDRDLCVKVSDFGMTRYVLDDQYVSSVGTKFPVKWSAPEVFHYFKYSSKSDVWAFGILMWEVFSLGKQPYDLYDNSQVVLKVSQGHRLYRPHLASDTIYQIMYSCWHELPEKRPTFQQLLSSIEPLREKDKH
Procedure: as §1, §2, §3

[4] = system: FRK
Procedure: as §1, §2, §3

[5] = biological target: T4, HCK (Homo sapiens, UniProt P08631)
T4 construct: specificity data for proteins generated from a library of eighteen full-length clones; host or cells: rabbit reticulocyte lysate, TnT coupled in vitro transcription/translation (cell-free)
Procedure: as §1, §2, §3

[6] = biological target: T5, SYK (Homo sapiens, UniProt P43405)
T5 construct: autophosphorylation activity from full-length clones Spleen Tyrosine Kinase (SYK) and Eph receptor-A7 (EphA7); host or cells: rabbit reticulocyte lysate, TnT coupled in vitro transcription/translation (cell-free)
Procedure: as §1, §2, §3

[7] = biological target: T6, Fert2 (Mus musculus, UniProt P70451)
T6 construct: specificity data for proteins generated from a library of eighteen full-length clones; host or cells: rabbit reticulocyte lysate, TnT coupled transcription/translation
Procedure: as §1, §2, §3

[8] = biological target: T7, CSK (Homo sapiens, UniProt P41240)
T7 construct: specificity data for proteins generated from a library of eighteen full-length clones; host or cells: rabbit reticulocyte lysate, TnT coupled in vitro transcription/translation (cell-free)
Procedure: as §1, §2, §3

[9] = biological target: T8, FGFR1 (Homo sapiens, UniProt P11362)
T8 construct: specificity data for proteins generated from a library of eighteen full-length clones; host or cells: rabbit reticulocyte lysate, TnT coupled transcription/translation
Procedure: as §1, §2, §3

[10] = biological target: T9, FGFR2 (Mus musculus, UniProt P21803)
T9 construct: specificity data for proteins generated from a library of eighteen full-length clones; host or cells: rabbit reticulocyte lysate, TnT coupled in vitro transcription/translation (cell-free)
Procedure: as §1, §2, §3

T8 sequence (P11362 22-822): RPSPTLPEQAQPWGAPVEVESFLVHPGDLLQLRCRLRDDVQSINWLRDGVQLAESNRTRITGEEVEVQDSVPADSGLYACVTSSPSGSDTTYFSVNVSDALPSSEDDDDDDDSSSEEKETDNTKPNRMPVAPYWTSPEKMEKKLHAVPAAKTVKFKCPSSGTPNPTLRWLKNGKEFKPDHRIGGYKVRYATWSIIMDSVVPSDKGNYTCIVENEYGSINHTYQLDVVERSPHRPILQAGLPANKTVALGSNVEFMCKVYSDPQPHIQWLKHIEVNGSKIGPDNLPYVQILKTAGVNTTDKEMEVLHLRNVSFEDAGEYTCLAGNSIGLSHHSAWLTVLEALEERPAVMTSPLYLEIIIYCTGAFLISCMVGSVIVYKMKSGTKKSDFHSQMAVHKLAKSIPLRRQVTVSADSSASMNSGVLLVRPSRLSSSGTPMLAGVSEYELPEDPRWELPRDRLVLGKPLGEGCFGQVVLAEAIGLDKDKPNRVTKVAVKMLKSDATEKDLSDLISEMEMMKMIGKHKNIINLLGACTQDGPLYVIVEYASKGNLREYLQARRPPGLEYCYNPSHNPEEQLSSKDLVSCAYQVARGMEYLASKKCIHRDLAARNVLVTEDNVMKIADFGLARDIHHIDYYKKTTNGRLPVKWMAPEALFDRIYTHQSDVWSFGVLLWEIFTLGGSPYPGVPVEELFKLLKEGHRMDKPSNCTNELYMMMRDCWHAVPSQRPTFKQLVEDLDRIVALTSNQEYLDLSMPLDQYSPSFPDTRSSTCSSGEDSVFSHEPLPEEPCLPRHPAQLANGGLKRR
T1 sequence (P05532 25-979): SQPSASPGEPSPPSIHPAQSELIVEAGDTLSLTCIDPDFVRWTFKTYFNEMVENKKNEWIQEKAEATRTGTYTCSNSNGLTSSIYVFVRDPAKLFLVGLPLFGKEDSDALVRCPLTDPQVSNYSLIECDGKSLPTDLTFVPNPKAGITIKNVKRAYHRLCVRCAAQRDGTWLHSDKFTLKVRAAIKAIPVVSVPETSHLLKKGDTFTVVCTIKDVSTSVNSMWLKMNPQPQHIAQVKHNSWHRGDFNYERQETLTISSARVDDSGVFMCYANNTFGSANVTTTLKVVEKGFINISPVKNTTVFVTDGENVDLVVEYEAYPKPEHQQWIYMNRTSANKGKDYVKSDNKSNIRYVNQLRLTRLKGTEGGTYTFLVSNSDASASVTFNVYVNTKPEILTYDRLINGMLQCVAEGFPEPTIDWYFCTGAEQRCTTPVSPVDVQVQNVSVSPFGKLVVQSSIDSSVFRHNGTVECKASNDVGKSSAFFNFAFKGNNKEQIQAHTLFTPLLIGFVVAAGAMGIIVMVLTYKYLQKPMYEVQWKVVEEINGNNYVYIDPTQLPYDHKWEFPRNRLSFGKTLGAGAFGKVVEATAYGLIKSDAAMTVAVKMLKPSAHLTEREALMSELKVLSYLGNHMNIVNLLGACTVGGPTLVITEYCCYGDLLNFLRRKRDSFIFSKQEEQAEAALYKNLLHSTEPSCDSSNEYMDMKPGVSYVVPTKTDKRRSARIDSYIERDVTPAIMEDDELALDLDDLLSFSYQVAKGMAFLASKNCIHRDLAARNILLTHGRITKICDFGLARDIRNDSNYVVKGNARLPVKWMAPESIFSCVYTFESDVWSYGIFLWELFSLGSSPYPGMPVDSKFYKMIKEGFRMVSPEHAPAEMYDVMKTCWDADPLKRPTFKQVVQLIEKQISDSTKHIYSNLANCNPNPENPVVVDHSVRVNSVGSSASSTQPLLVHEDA
T6 sequence (P70451 whole entry): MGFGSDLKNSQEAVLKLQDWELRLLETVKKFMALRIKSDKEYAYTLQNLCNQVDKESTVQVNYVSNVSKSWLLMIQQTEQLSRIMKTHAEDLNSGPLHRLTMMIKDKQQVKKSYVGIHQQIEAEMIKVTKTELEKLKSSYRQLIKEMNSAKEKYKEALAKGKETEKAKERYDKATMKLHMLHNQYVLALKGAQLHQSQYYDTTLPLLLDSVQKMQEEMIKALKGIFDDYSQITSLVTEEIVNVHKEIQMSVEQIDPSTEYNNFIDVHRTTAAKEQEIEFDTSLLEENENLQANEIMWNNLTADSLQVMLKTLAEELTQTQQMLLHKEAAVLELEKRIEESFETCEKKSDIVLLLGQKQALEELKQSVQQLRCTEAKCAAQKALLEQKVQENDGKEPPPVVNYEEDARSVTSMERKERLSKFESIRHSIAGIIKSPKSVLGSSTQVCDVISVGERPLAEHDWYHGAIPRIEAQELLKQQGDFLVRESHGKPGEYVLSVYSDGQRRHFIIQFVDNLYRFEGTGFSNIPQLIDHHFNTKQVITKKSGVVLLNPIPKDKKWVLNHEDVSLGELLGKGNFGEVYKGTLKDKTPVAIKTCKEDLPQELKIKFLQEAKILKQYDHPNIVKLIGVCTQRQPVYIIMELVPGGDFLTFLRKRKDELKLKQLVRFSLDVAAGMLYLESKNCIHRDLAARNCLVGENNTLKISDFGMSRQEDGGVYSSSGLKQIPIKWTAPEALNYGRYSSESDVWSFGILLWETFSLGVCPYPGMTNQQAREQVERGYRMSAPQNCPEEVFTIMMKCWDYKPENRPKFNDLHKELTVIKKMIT
T4 sequence (P08631 whole entry): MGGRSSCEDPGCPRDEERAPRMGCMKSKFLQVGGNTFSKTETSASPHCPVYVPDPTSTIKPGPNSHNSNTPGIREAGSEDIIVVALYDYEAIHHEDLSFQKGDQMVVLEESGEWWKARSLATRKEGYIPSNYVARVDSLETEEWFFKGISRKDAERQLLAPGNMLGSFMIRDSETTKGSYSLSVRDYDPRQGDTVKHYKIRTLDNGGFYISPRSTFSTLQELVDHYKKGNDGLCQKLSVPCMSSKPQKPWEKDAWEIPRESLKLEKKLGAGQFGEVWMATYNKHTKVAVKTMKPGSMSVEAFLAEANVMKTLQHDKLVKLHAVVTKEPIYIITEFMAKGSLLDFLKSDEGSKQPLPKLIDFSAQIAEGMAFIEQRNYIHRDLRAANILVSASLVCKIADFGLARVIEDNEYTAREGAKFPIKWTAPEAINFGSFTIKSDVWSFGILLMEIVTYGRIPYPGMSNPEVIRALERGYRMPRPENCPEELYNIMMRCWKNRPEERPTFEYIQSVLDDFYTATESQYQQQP
T7 sequence (P41240 whole entry): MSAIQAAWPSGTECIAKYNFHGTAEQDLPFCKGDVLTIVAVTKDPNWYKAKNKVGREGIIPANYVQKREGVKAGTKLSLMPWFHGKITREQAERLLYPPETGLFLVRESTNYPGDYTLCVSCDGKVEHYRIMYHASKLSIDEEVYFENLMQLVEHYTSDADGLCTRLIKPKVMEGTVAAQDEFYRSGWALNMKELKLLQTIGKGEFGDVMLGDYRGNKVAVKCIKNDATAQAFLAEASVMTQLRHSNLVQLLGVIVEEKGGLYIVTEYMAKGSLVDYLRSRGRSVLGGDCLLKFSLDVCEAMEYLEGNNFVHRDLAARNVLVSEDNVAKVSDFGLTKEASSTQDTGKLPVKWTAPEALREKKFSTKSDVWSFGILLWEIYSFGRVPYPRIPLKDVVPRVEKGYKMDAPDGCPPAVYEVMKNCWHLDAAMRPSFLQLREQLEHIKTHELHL
T9 sequence (P21803 22-821): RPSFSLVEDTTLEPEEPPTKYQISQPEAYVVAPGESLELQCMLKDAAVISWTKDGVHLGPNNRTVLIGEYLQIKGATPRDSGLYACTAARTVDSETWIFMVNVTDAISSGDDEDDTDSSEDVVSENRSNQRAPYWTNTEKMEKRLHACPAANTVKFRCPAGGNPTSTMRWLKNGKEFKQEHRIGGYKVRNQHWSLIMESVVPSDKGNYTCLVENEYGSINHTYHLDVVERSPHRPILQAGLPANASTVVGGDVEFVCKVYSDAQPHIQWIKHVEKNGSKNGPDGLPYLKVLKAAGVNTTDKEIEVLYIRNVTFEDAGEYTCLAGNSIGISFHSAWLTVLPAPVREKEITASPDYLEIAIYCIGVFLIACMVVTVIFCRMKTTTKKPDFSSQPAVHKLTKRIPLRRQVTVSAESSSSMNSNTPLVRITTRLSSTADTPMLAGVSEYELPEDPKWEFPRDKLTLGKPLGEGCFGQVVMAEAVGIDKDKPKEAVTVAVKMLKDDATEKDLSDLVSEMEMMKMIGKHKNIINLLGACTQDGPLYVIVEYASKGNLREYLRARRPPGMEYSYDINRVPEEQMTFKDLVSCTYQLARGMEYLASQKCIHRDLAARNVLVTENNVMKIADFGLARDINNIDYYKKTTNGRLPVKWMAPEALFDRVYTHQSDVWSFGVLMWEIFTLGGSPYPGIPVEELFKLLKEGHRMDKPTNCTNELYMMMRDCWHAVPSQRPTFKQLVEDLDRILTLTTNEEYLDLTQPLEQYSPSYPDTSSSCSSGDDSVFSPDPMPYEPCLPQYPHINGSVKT

**Q.** COc1cc2ncnc(Nc3ccc(O)cc3)c2cc1OC [WHI-P131] was tested. Which “Inhibition specificity towards Autophosphorylation at 10X IC50, Kit” value [1] did it give?
**A.** L (low inhibition (“L”=between 50–75% of the activity remaining))

**Q.** Which “Inhibition specificity towards Autophosphorylation at 10X IC50, Src” value [2] does the source give for Cc1ccc(-c2nn(C(C)(C)C)c3ncnc(N)c23)cc1 [PP1] here?
**A.** L (low inhibition (“L”=between 50–75% of the activity remaining))

**Q.** Cc1cc2ncc(-c3ccc(O)c(O)c3)nc2cc1C [AG-1433] was tested. Which “Inhibition specificity towards Autophosphorylation at 10X IC50, BMX” value [3] did it give?
**A.** H (high inhibition (“H”=less than 25% of the activity remaining))

**Q.** What about the “Inhibition specificity towards Autophosphorylation at 10X IC50, FRK” value [4] of the same molecule?
**A.** H (high inhibition (“H”=less than 25% of the activity remaining))

**Q.** And the “Inhibition specificity towards Autophosphorylation at 10X IC50, HCK” value [5]?
**A.** H (high inhibition (“H”=less than 25% of the activity remaining))

**Q.** What about the “Inhibition specificity towards Autophosphorylation at 10X IC50, SYK” value [6] of the same molecule?
**A.** H (high inhibition (“H”=less than 25% of the activity remaining))

**Q.** And the “Inhibition specificity towards Autophosphorylation at 10X IC50, Fert2” value [7]?
**A.** H (high inhibition (“H”=less than 25% of the activity remaining))

**Q.** And the “Inhibition specificity towards Autophosphorylation at 10X IC50, CSK” value [8]?
**A.** H (high inhibition (“H”=less than 25% of the activity remaining))

**Q.** What about the “Inhibition specificity towards Autophosphorylation at 10X IC50, Kit” value [1] of the same molecule?
**A.** H (high inhibition (“H”=less than 25% of the activity remaining))

**Q.** What about the “Inhibition specificity towards Autophosphorylation at 10X IC50, Src” value [2] of the same molecule?
**A.** H (high inhibition (“H”=less than 25% of the activity remaining))

**Q.** What about the “Inhibition specificity towards Autophosphorylation at 10X IC50, FGFR1” value [9] of the same molecule?
**A.** H (high inhibition (“H”=less than 25% of the activity remaining))

**Q.** And the “Inhibition specificity towards Autophosphorylation at 10X IC50, FGFR2” value [10]?
**A.** H (high inhibition (“H”=less than 25% of the activity remaining))

**Q.** Which results are given for COc1c(C=O)c(O)cc2c1C(=O)c1ccccc1C2=O [Damnacanthal]?
**A.** Inhibition specificity towards Autophosphorylation at 10X IC50, BMX [3]: H (high inhibition (“H”=less than 25% of the activity remaining)); Inhibition specificity towards Autophosphorylation at 10X IC50, FRK [4]: H (high inhibition (“H”=less than 25% of the activity remaining)); Inhibition specificity towards Autophosphorylation at 10X IC50, HCK [5]: M (medium inhibition (“M”=between 25 to 50% of the activity remaining)); Inhibition specificity towards Autophosphorylation at 10X IC50, SYK [6]: M (medium inhibition (“M”=between 25 to 50% of the activity remaining)); Inhibition specificity towards Autophosphorylation at 10X IC50, Fert2 [7]: L (low inhibition (“L”=between 50–75% of the activity remaining)); Inhibition specificity towards Autophosphorylation at 10X IC50, CSK [8]: M (medium inhibition (“M”=between 25 to 50% of the activity remaining)); Inhibition specificity towards Autophosphorylation at 10X IC50, Kit [1]: H (high inhibition (“H”=less than 25% of the activity remaining)); Inhibition specificity towards Autophosphorylation at 10X IC50, Src [2]: H (high inhibition (“H”=less than 25% of the activity remaining)); Inhibition specificity towards Autophosphorylation at 10X IC50, FGFR1 [9]: M (medium inhibition (“M”=between 25 to 50% of the activity remaining)); Inhibition specificity towards Autophosphorylation at 10X IC50, FGFR2 [10]: M (medium inhibition (“M”=between 25 to 50% of the activity remaining))

**Q.** What does the source list for COC(=O)c1ccc(NCc2cc(O)ccc2O)cc1 [AG-957]?
**A.** Inhibition specificity towards Autophosphorylation at 10X IC50, BMX [3]: L (low inhibition (“L”=between 50–75% of the activity remaining)); Inhibition specificity towards Autophosphorylation at 10X IC50, FRK [4]: L (low inhibition (“L”=between 50–75% of the activity remaining)); Inhibition specificity towards Autophosphorylation at 10X IC50, HCK [5]: L (low inhibition (“L”=between 50–75% of the activity remaining)); Inhibition specificity towards Autophosphorylation at 10X IC50, SYK [6]: L (low inhibition (“L”=between 50–75% of the activity remaining)); Inhibition specificity towards Autophosphorylation at 10X IC50, CSK [8]: L (low inhibition (“L”=between 50–75% of the activity remaining)); Inhibition specificity towards Autophosphorylation at 10X IC50, Kit [1]: L (low inhibition (“L”=between 50–75% of the activity remaining)); Inhibition specificity towards Autophosphorylation at 10X IC50, Src [2]: L (low inhibition (“L”=between 50–75% of the activity remaining)); Inhibition specificity towards Autophosphorylation at 10X IC50, FGFR1 [9]: L (low inhibition (“L”=between 50–75% of the activity remaining)); Inhibition specificity towards Autophosphorylation at 10X IC50, FGFR2 [10]: L (low inhibition (“L”=between 50–75% of the activity remaining))

**Q.** For CC(C)(C)c1cc(C=C(C#N)C#N)cc(Br)c1O [AG-1024], which “Inhibition specificity towards Autophosphorylation at 10X IC50, FGFR2” value [10] is on record?
**A.** L (low inhibition (“L”=between 50–75% of the activity remaining))

**Q.** For Erbstatin analog, which “Inhibition specificity towards Autophosphorylation at 10X IC50, BMX” value [3] is on record?
**A.** L (low inhibition (“L”=between 50–75% of the activity remaining))

**Q.** What about the “Inhibition specificity towards Autophosphorylation at 10X IC50, HCK” value [5] of the same molecule?
**A.** L (low inhibition (“L”=between 50–75% of the activity remaining))

**Q.** And the “Inhibition specificity towards Autophosphorylation at 10X IC50, SYK” value [6]?
**A.** L (low inhibition (“L”=between 50–75% of the activity remaining))

**Q.** What about the “Inhibition specificity towards Autophosphorylation at 10X IC50, Fert2” value [7] of the same molecule?
**A.** L (low inhibition (“L”=between 50–75% of the activity remaining))

**Q.** What about the “Inhibition specificity towards Autophosphorylation at 10X IC50, Kit” value [1] of the same molecule?
**A.** L (low inhibition (“L”=between 50–75% of the activity remaining))

**Q.** What about the “Inhibition specificity towards Autophosphorylation at 10X IC50, Src” value [2] of the same molecule?
**A.** L (low inhibition (“L”=between 50–75% of the activity remaining))

**Q.** What about the “Inhibition specificity towards Autophosphorylation at 10X IC50, FGFR2” value [10] of the same molecule?
**A.** L (low inhibition (“L”=between 50–75% of the activity remaining))
